The test system of one data set is L 1210 leukemia cells. The data set is described as follows: Effect on L 1210 leukemia cells: colony formation in agarose, method of Hamburger and Salmon modified. It is filed as cell-based. The settings on record: Mus musculus. As for the experimental part: The cells are incubated for 1 hour at 37° C. in the presence of various concentrations of the tested substance. The cells are then washed twice with Mc Coy 5 A and placed on agarose plates according to the method of Hamburger and Salmon. Furthermore, the test is carried out in parallel with continuous incubation with various concentrations of the substance under study by introducing the substance into the agarose layer before the cells are left to incubate. The dishes are placed in the oven at 37° C. under an atmosphere of 5% CO2 and 20% O2, and a relative humidity of 95% for 5 to 7 days. After this time the colonies with a diameter greater than 60 mcm are counted with the aid of a reversed microscope. […] Two experiments are carried out, one with 1 hour's exposure, the other with continuous exposure.

The conditions of data set [1]: versus the parent compounds; F. Arcamone et al. 1976; cited from earlier work.
Where [2] appears, read: L1210, L 1210 leukemia cells, 1 h exposure at 37° C., read-out: IC 50, 1 h exposure.
[3] abbreviates: L1210, L 1210 leukemia cells, continuous exposure (substance in agarose layer), 5 to 7 days, read-out: IC 50, Continuous exposure.

Values after ≈ are worked out from the molar mass of the structure shown. Like-named read-outs stand apart in the source and are kept apart here.

`C[C@@H]1O[C@@H](O[C@H]2C[C@]3(COC(C)(C)O3)Cc3c(O)c4c(c(O)c32)C(=O)c2ccccc2C4=O)C[C@H](O)[C@H]1O`: the IC50 with L 1210 leukemia cells (setting [2]) and in the data set with L 1210 leukemia cells (setting [3]) was over 1 µg/mL each time.
Consider `CC(=O)[C@]1(O)Cc2c(O)c3c(c(O)c2[C@@H](O[C@H]2C[C@H](N)[C@H](O)[C@H](C)O2)C1)C(=O)c1ccccc1C3=O` [4-demethoxydaunorubicin], for which, in data set [1], the “activity relative to the parent compounds” value is recorded as “more active” and the “toxicity relative to the parent compounds” value is “less toxic”.
On to `COc1cccc2c1C(=O)c1c(O)c3c(c(O)c1C2=O)C[C@@](O)(C(=O)CO)C[C@@H]3O[C@H]1C[C@H](N)[C@H](O)[C@H](C)O1` [DOXORUBICIN, reference compound], for which the IC50 in the data set on L 1210 leukemia cells (L1210, 1 h, read-out: IC 50, 1 h exposure) came to 0.02 µg/mL (≈ 0.0368 µM); in the data set on L 1210 leukemia cells (L1210, read-out: IC 50, Continuous exposure) it was 0.04 µg/mL (≈ 0.0736 µM).
As to `CC(=O)O[C@H]1[C@H](C)O[C@@H](O[C@H]2C[C@]3(COC(C)(C)O3)Cc3c(O)c4c(c(O)c32)C(=O)c2ccccc2C4=O)C[C@@H]1OC(C)=O` [XXIII, 1-O-(3',4'-Di-O-acetyl-2',6'-dideoxy-α-L-arabinohexopyranosyl)-1,2,3,4,6,11-hexahydro-1S,3S,5,12-tetrahydroxy-3-hydroxymethyl-3,13-O-isopropylidenenaphthacene-6,11-dione], the IC50 was 2.8 µg/mL (≈ 4.59 µM) with L 1210 leukemia cells (setting [2]) and over 10 µg/mL with L 1210 leukemia cells (setting [3]).
The matching figures for `CC(=O)O[C@H]1[C@H](C)O[C@@H](O[C@H]2C[C@](O)(CO)Cc3c(O)c4c(c(O)c32)C(=O)c2ccccc2C4=O)C[C@@H]1OC(C)=O` [XXIV, 1-O-(3',4'-Di-O-acetyl-2',6'-dideoxy-α-L-arabinohexopyranosyl)-1,2,3,4,6,11-hexahydro-1S,3S,5,12-tetrahydroxy-3-hydroxymethylnaphthacene-6,11-dione]: 0.021 µg/mL (≈ 0.0368 µM) and 3.6 µg/mL (≈ 6.31 µM).
The matching figures for `C[C@@H]1O[C@@H](O[C@H]2C[C@](O)(CO)Cc3c(O)c4c(c(O)c32)C(=O)c2ccccc2C4=O)C[C@H](O)[C@H]1O` [XXV, 1-O-(2',6'-dideoxy-α-L-arabinohexopyranosyl)-1,2,3,4,6,11-hexahydro-1S,3S,5,12-tetrahydroxy-3-hydroxymethylnaphthacene-6,11-dione]: 0.025 µg/mL (≈ 0.0514 µM) and 0.063 µg/mL (≈ 0.13 µM).
Turning to `COc1cccc2c1C(=O)c1c(O)c3c(c(O)c1C2=O)C[C@@](O)(C(=O)CO)C[C@@H]3O[C@H]1C[C@H](N)[C@H](O)[C@H](C)O1` [adriamycin], in data set [1], the “activity relative to the parent compounds” value was “more active” and the “toxicity relative to the parent compounds” value is “less toxic”.

Values taken from patent US4918173A, “2',6'-Dideoxy derivatives of anthracycline glycosides” (Laboratories Hoechst S.A., priority 1985, dated 1990).
